The data set is described as follows: activity coefficient (dimensionless); of the first substance listed, at infinite dilution; xn = mol fraction of the nth substance listed. The following applies: Liquid, Chromatography, x1 = 0.

The structures appear in SMILES notation. ± gives the expanded uncertainty stated by the source.

For `C1=CCCC=C1` [1,3-cyclohexadiene] + CCCC[N+](C)(C)C.O=S(=O)([N-]S(=O)(=O)C(F)(F)F)C(F)(F)F, the activity coefficient (305.95 K) was found to be 3.59 ± 0.24; the activity coefficient (322.55 K) was found to be 3.37 ± 0.23; the activity coefficient (333.25 K) was found to be 3.18 ± 0.22; the activity coefficient (343.65 K) was 3.03 ± 0.21; the activity coefficient (354.15 K) was 2.91 ± 0.2; the activity coefficient (364.55 K) came out at 2.81 ± 0.19.
In the case of `C1COCCO1` [1,4-dioxane] + CCCC[N+](C)(C)C.O=S(=O)([N-]S(=O)(=O)C(F)(F)F)C(F)(F)F, the activity coefficient (343.75 K) is 0.74 ± 0.05 and the activity coefficient (354.25 K) came to 0.73 ± 0.05.
In the case of `C=CCCCCCCCC` [1-decene] + CCCC[N+](C)(C)C.O=S(=O)([N-]S(=O)(=O)C(F)(F)F)C(F)(F)F, the activity coefficient runs as follows: (306.15 K) 50.4 ± 3.5; (311.95 K) 47.8 ± 3.3; (322.55 K) 43.1 ± 3; (333.25 K) 39 ± 2.7; (343.65 K) 35.2 ± 2.4; (354.05 K) 32.1 ± 2.2.
For `C=CCCCCCCCCCC` [1-dodecene] + CCCC[N+](C)(C)C.O=S(=O)([N-]S(=O)(=O)C(F)(F)F)C(F)(F)F, the activity coefficient is, setting by setting: (333.25 K) 76.8 ± 5.3; (343.75 K) 68.9 ± 4.7; (354.05 K) 61.4 ± 4.2; (364.55 K) 54.6 ± 3.7; (371.95 K) 49 ± 3.4.
Turning to `C=CCCCCC` [1-heptene] + CCCC[N+](C)(C)C.O=S(=O)([N-]S(=O)(=O)C(F)(F)F)C(F)(F)F, the activity coefficient came to 15.6 ± 1.1 (306.75 K); 14.9 ± 1 (311.95 K); 13.9 ± 0.95 (322.55 K); 12.9 ± 0.88 (333.25 K); 12 ± 0.82 (343.65 K); 11.3 ± 0.77 (354.05 K).
Regarding `C=CCCCCCCC` [1-nonene] + CCCC[N+](C)(C)C.O=S(=O)([N-]S(=O)(=O)C(F)(F)F)C(F)(F)F, the activity coefficient (306.65 K) amounted to 34.1 ± 2.3; the activity coefficient (311.98 K) was 32.6 ± 2.2; the activity coefficient (322.55 K) came out at 29.9 ± 2; the activity coefficient (333.25 K) stood at 26.7 ± 1.8; the activity coefficient (343.65 K) was 24.5 ± 1.7; the activity coefficient (354.05 K) came to 22.3 ± 1.5. Besides, for the setting “364.55 K”, the activity coefficient turned out to be 20.9 ± 1.4.
As for `C=CCCC` [1-pentene] + CCCC[N+](C)(C)C.O=S(=O)([N-]S(=O)(=O)C(F)(F)F)C(F)(F)F, the activity coefficient runs as follows: (301.85 K) 6.06 ± 0.41; (312.35 K) 5.79 ± 0.39.
For `C=CCCCCCCCCC` [1-undecene] + CCCC[N+](C)(C)C.O=S(=O)([N-]S(=O)(=O)C(F)(F)F)C(F)(F)F, the activity coefficient (322.55 K) stood at 62.7 ± 4.3; the activity coefficient (333.25 K) was 56.1 ± 3.8; the activity coefficient (343.65 K) worked out at 50.7 ± 3.5; the activity coefficient (354.05 K) is 45.8 ± 3.1; the activity coefficient (364.55 K) was 42.6 ± 2.9; the activity coefficient (374.95 K) worked out at 37.6 ± 2.6.
Regarding `CC(C)CO` [2-methyl-1-propanol] + CCCC[N+](C)(C)C.O=S(=O)([N-]S(=O)(=O)C(F)(F)F)C(F)(F)F, the activity coefficient reads like this: (302.55 K) 3.98 ± 0.27; (312.15 K) 3.52 ± 0.24; (322.85 K) 3.13 ± 0.21; (333.35 K) 2.72 ± 0.19; (343.65 K) 2.46 ± 0.17; (354.05 K) 2.23 ± 0.15.
Turning to `CCC(C)(C)O` [2-methylbutan-2-ol] + CCCC[N+](C)(C)C.O=S(=O)([N-]S(=O)(=O)C(F)(F)F)C(F)(F)F, the activity coefficient (302.55 K) turned out to be 2.53 ± 0.17; the activity coefficient (312.15 K) was 2.32 ± 0.16; the activity coefficient (333.25 K) worked out at 1.94 ± 0.13; the activity coefficient (343.65 K) was 1.8 ± 0.12; the activity coefficient (354.05 K) was determined as 1.67 ± 0.11.
With `CC(C)(C)O` [2-methylpropan-2-ol] + CCCC[N+](C)(C)C.O=S(=O)([N-]S(=O)(=O)C(F)(F)F)C(F)(F)F, the activity coefficient is 2.24 ± 0.15 (302.55 K); 2.01 ± 0.14 (312.15 K); 1.79 ± 0.12 (322.85 K); 1.61 ± 0.11 (333.25 K); 1.47 ± 0.1 (343.65 K); 1.34 ± 0.09 (354.05 K).
On to `CN1CCCC1=O` [N-methylpyrrolidone] + CCCC[N+](C)(C)C.O=S(=O)([N-]S(=O)(=O)C(F)(F)F)C(F)(F)F, for which the activity coefficient reads like this: (312.35 K) 112 ± 7.7; (322.75 K) 81.3 ± 5.6; (333.35 K) 60.4 ± 4.1; (343.75 K) 46.1 ± 3.1; (354.15 K) 36.5 ± 2.5; (364.75 K) 28 ± 1.9. Besides, for the setting “375.15 K”, the activity coefficient was found to be 22.4 ± 1.5.
As for `CC(C)=O` [acetone] + CCCC[N+](C)(C)C.O=S(=O)([N-]S(=O)(=O)C(F)(F)F)C(F)(F)F, the activity coefficient is, setting by setting: (301.85 K) 0.42 ± 0.04; (312.45 K) 0.42 ± 0.04; (343.75 K) 0.4 ± 0.03.
`CC#N` [acetonitrile] + CCCC[N+](C)(C)C.O=S(=O)([N-]S(=O)(=O)C(F)(F)F)C(F)(F)F: the activity coefficient reads like this: (301.75 K) 0.52 ± 0.04; (312.45 K) 0.5 ± 0.04; (322.95 K) 0.49 ± 0.04; (333.35 K) 0.47 ± 0.04; (343.75 K) 0.46 ± 0.04.
Consider `c1ccccc1` [benzene] + CCCC[N+](C)(C)C.O=S(=O)([N-]S(=O)(=O)C(F)(F)F)C(F)(F)F, for which the activity coefficient stood at 1.3 ± 0.08 (322.75 K); 1.26 ± 0.08 (333.35 K); 1.26 ± 0.08 (343.55 K); 1.22 ± 0.08 (354.05 K); 1.2 ± 0.08 (364.45 K).
With `CCCCO` [butan-1-ol] + CCCC[N+](C)(C)C.O=S(=O)([N-]S(=O)(=O)C(F)(F)F)C(F)(F)F, the activity coefficient was determined as 3.62 ± 0.25 (302.55 K); 3.22 ± 0.22 (312.15 K); 2.83 ± 0.19 (322.85 K); 2.49 ± 0.17 (333.35 K); 2.24 ± 0.15 (343.65 K).
As to `CCC(C)O` (centres undefined) [butan-2-ol] + CCCC[N+](C)(C)C.O=S(=O)([N-]S(=O)(=O)C(F)(F)F)C(F)(F)F, the activity coefficient reads like this: (333.15 K) 2.06 ± 0.14; (343.65 K) 1.87 ± 0.13; (354.05 K) 1.7 ± 0.11; (364.45 K) 1.53 ± 0.1; (374.95 K) 1.38 ± 0.09.
In the case of `CCCC=O` [butanal] + CCCC[N+](C)(C)C.O=S(=O)([N-]S(=O)(=O)C(F)(F)F)C(F)(F)F, the activity coefficient (301.75 K) was 0.84 ± 0.05; the activity coefficient (312.25 K) was 0.8 ± 0.05; the activity coefficient (322.75 K) amounted to 0.79 ± 0.05; the activity coefficient (343.55 K) was determined as 0.77 ± 0.05; the activity coefficient (354.15 K) was 0.76 ± 0.05.
For `CCCCc1ccccc1` [butylbenzene] + CCCC[N+](C)(C)C.O=S(=O)([N-]S(=O)(=O)C(F)(F)F)C(F)(F)F, the activity coefficient was determined as 5.77 ± 0.39 (333.25 K); 5.62 ± 0.38 (343.65 K); 5.43 ± 0.37 (354.05 K); 5.31 ± 0.36 (364.45 K); 5.16 ± 0.35 (374.95 K).
Take `C1CCCCC1` [cyclohexane] + CCCC[N+](C)(C)C.O=S(=O)([N-]S(=O)(=O)C(F)(F)F)C(F)(F)F: the activity coefficient by setting is: (300.95 K) 4.15 ± 0.28; (312.25 K) 3.84 ± 0.26; (322.85 K) 3.6 ± 0.25; (333.35 K) 3.37 ± 0.23.
Take `OC1CCCCC1` [cyclohexanol] + CCCC[N+](C)(C)C.O=S(=O)([N-]S(=O)(=O)C(F)(F)F)C(F)(F)F: the activity coefficient by setting is: (343.65 K) 3.52 ± 0.24; (354.05 K) 2.89 ± 0.2; (364.45 K) 2.54 ± 0.17; (373.95 K) 2.27 ± 0.15; (385.55 K) 1.95 ± 0.13.
In the case of `C1=CCCCC1` [cyclohexene] + CCCC[N+](C)(C)C.O=S(=O)([N-]S(=O)(=O)C(F)(F)F)C(F)(F)F, the activity coefficient was 6.87 ± 0.47 (312.05 K); 6.45 ± 0.44 (322.55 K); 5.94 ± 0.4 (333.25 K); 5.5 ± 0.37 (343.65 K); 5.31 ± 0.36 (354.15 K).
On to `CCCCCCCCCC` [decane] + CCCC[N+](C)(C)C.O=S(=O)([N-]S(=O)(=O)C(F)(F)F)C(F)(F)F, for which the activity coefficient (302.15 K) stood at 97.8 ± 6.7; the activity coefficient (312.15 K) was determined as 87.5 ± 6; the activity coefficient (322.65 K) was determined as 77.5 ± 5.3; the activity coefficient (333.25 K) was 67.2 ± 4.6; the activity coefficient (343.65 K) was determined as 59.9 ± 4.1; the activity coefficient (354.05 K) is 53.7 ± 3.7.
With `CN(C)C=O` [dimethylformamide] + CCCC[N+](C)(C)C.O=S(=O)([N-]S(=O)(=O)C(F)(F)F)C(F)(F)F, the activity coefficient (364.55 K) is 0.29 ± 0.03, the activity coefficient (375.15 K) amounted to 0.29 ± 0.03, the activity coefficient (385.55 K) is 0.3 ± 0.03 and the activity coefficient (396.15 K) was determined as 0.3 ± 0.03.
As to `CCCCCCCCCCCC` [dodecane] + CCCC[N+](C)(C)C.O=S(=O)([N-]S(=O)(=O)C(F)(F)F)C(F)(F)F, the activity coefficient was 128 ± 8.8 (333.25 K), 110 ± 7.5 (343.65 K) and 92.3 ± 6.3 (354.05 K).

The values are drawn from the NIST ThermoML archive (doi:10.1021/je050440b).
